The values below come from PMC7340670, “Phase I study of TAS-115, a novel oral multi-kinase inhibitor, in patients with advanced solid tumors” (Investigational New Drugs, 2019).

Each structure is given as a SMILES string.

Assay [1] has as its system soluble MET (sMET). Put plainly: Pharmacodynamic marker: sMET in plasma. Type of assay: in vivo, human. The protocol:
(§1) The secondary objectives were to investigate the PK profile, safety, tolerability, antitumor activity, and pharmacodynamic profile of TAS-115. AEs were graded according to the CTCAE Version 4.03. Response was assessed by radiologic imaging at 6 and 12 weeks from the first dose, and every 12 weeks thereafter. Antitumor effect was evaluated by investigators using Response Evaluation Criteria in Solid Tumors (RECIST) Version 1.1 [17]. If a patient had bone lesions, evaluation was performed using bone scintigraphy and bone scan index (BSI) were calculated by BONENAVI® software (FUJIFILM Toyama Chemical, Co., Ltd., Japan). BSI response was defined as ≥30% reduction in BSI [18]. An exploratory objective was to assess changes in protein levels of soluble MET (sMET), VEGF, and soluble VEGFR2 (sVEGFR2) in plasma, and HGF in serum as pharmacodynamic markers.
For pharmacodynamic analyses, blood samples were collected on Days 1 and 22 (before dosing, each) in part 1, and Days 1 (pre-dosing) and 19 (pre- and post 6 h) in part 2 and the expansion part. Patients provided written informed consent to provide blood samples for exploratory pharmacodynamics assessments.
The planned sample size was up to 90 patients, and it was not based on the formal calculation because of experimental phase I trial. For pharmacodynamics parameters, P values were calculated using the paired t-test for measured values from merged doses. The data cut-off date for the analyses presented in this report was August 19, 2018. This study is registered with Japan Pharmaceutical Information Center Clinical Trial registry, number JapicCTI-132333.

Assay [2] concerns AKT and ERK1/2 phosphorylation. Set-up: method as in PMID 27539855, PMID 27736957. To be noted: mouse osteoclasts in vitro; cited from earlier work.
Assay [3] has as its system VEGF. In words: Pharmacodynamic marker: VEGF in plasma. Type of assay: in vivo, human. The protocol:
as §1
For pharmacodynamic analyses, blood samples were collected on Days 1 and 22 (before dosing, each) in part 1, and Days 1 (pre-dosing) and 19 (pre- and post 6 h) in part 2 and the expansion part. […]
The planned sample size was up to 90 patients, and it was not based on the formal calculation because of experimental phase I trial. For pharmacodynamics parameters, P values were calculated using the paired t-test for measured values from merged doses. […]

With `CNC(=O)c1cc2c(Oc3ccc(NC(=S)NC(=O)Cc4ccccc4)cc3F)ccnc2cc1OC` [TAS-115], the “change of sMET in plasma” value in assay [1] (Day 19, 6 h after administration, part 2 and expansion part, P = .0055) is reported as “significant increase”; in assay [1] (Day 19 pre-dose, part 2 and expansion part, P = .0015) it was “significant increase”; in assay [1] (Day 22 in part 1, P = .0031) it was “significant increase”. In addition, in assay [2], the “HGF, and VEGF-induced phosphorylation of signaling factors (AKT and ERK1/2)” value was “suppressed”. Also, the “change of VEGF” value in assay [3] (6 h post-dose on Day 19 compared with pre-dose on Day 19, P = .0844) is on record as “increase”. Further, the “marked alterations of VEGF from Day 1” value in assay [3] (in vivo) is “not observed”.
